Measured values from US11788112B2, “L-2-hydroxyglutarate and stress induced metabolism” (Memorial Sloan-Kettering Cancer Center, priority 2014, dated 2023).

Columns and labels:
[1] = target: T1, purified human KDM4C (Homo sapiens, UniProt Q9H3R0); assay: In vitro histone demethylase assay (H3K9me3 by Western blot); format: biochemical; details: bulk histones, α-KG 1 mM, 37° C. for 4 hr, various concentrations
T1 construct: GST; purchased BPS Bioscience
T1 sequence (Q9H3R0 1-1056): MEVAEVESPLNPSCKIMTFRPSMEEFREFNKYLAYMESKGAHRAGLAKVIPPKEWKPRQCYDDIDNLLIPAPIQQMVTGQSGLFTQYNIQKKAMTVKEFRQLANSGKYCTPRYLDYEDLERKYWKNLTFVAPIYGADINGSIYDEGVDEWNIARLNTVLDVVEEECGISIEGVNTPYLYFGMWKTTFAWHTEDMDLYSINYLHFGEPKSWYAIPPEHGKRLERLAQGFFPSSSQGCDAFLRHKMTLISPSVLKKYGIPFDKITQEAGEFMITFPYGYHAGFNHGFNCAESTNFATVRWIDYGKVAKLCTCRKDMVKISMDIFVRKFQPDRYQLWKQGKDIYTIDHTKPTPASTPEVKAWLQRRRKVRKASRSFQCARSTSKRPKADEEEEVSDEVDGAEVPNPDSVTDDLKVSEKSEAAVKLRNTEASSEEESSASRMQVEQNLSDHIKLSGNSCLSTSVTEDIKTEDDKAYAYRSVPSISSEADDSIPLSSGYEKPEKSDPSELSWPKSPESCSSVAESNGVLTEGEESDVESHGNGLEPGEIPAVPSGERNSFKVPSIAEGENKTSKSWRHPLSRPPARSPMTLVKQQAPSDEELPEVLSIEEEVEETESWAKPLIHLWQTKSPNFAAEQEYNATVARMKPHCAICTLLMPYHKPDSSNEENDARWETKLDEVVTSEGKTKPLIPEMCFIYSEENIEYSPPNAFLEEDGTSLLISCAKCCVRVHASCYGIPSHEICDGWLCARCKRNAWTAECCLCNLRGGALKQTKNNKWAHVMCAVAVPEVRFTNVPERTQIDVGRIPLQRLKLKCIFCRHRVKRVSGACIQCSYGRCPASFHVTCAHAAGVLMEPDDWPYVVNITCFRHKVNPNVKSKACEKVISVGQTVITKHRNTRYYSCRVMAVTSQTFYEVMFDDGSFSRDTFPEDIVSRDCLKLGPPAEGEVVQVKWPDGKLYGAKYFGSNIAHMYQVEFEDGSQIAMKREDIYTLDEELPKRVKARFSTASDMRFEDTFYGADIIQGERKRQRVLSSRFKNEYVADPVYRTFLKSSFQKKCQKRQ

[2] = target: T2, KDM4C (Homo sapiens, UniProt Q9H3R0); details: prior reports (Chowdhury et al., 2011; Lu et al., 2012); cited from earlier work
T2 sequence (Q9H3R0 1-1056): T1 sequence (Q9H3R0 1-1056)

[3] = system: SF188 cells; assay: Intracellular 2HG by GC-MS in SF188 cells supplemented with cell-permeable α-KG; format: cell-based, human; details: 48 hr, 5 mM dimethyl-α-KG vs vehicle (DMSO)
Method: FIG. 2 depicts quantified results of GC-MS histograms showing that hypoxia-induced L-2HG originates from glutamine-derived α-ketoglutarate. Panels in (A and B) are line-drawings showing the fraction of intracellular 2HG labeled by ^13C at the indicated time. Isotope tracing was performed in SF188 cells cultured in medium containing either [U-^13C]glucose or [U-^13C]glutamine. […] Panels in (C) are bar graphs showing normalized 2HG. SF188 cells were cultured for 48 hr in 21% or 0.5% O2 in the presence of vehicle (DMSO) or 5 mM dimethyl-α-KG. Total intracellular 2HG was assessed by GC-MS. […] Representative data from 1 of 3 independent experiments are shown. Panels in (D and E) are GC-MS histograms showing 2HG ions in different conditions. SF188 cells were cultured as in (C), then chiral derivatization of metabolites was performed to allow separation of 2HG enantiomers by GC-MS. Panels in (D) show an overlay of GC-MS histograms for 2HG on the same scale. […]
Metabolites were extracted with 1 mL ice-cold 80% methanol supplemented with 2 micromolar deuterated 2-hydroxyglutarate (D-2-hydroxyglutaric-2,3,3,4,4-d5 acid; deuterated-D-2HG) as an internal standard. […] Samples were analyzed using an Agilent 7890A GC coupled to Agilent 5975C mass selective detector. […] Ions used for quantification of metabolite levels were 2HG m/z 247 and deuterated-2HG m/z 252. […]

For `O=C(O)CC[C@H](O)C(=O)O` [L-2HG, L-2-hydroxyglutarate], the “inhibition of KDM4C demethylation of H3K9me3” value [1] is given as “sensitive to inhibition by L-2HG, in a dose dependent manner” and the “inhibition of KDM4C” value [2] is given as “roughly comparable inhibition”.

With `COC(=O)CCC(=O)C(=O)OC` [dimethyl-α-KG, dimethyl alpha-ketoglutarate] the “increase in intracellular 2HG” value ([3]; hypoxia (0.5% O2), confirmed to be L-2HG by chiral derivatization) was ~100 fold and the “increase in intracellular 2HG” value ([3]; normoxia (21% O2)) was “modest increase”.

For D-2-hydroxyglutarate [D-2HG], the “inhibition of KDM4C” value [2] is listed as “roughly comparable inhibition”.
